Several values for one entry are separate records, joined by “and”; a condition that tells them apart may be missing. Equal values may be shown once. Inconclusive results and toxic doses are left out. Rule for the calls: active = survival T/C of 150% or more; inactive = T/C below 125% in these data.
Test system: P388 leukemia ip, CD2F1 mice, survival T/C
Assay: NCI In Vivo Anticancer Drug Screen. Data for tumor model P388 Leukemia (intraperitoneal) in CD2F1 (CDF1) mice
Details: endpoint: median survival time, higher = longer survival
How it was run: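 Mice carrying the transplanted tumor received test compound or vehicle. Survival was recorded in each group, and the value is the treated-group measurement divided by that of the vehicle-treated control group.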

[1] = dose: 50.0 mg/kg/injection, schedule: Q01DX009 (ip), vehicle: Klucel (hydroxypropylcellulose) (HPC)
[2] = dose: 100.0 mg/kg/injection, schedule: Q01DX009 (ip), vehicle: Klucel (hydroxypropylcellulose) (HPC)
[3] = dose: 200.0 mg/kg/injection, schedule: Q01DX009 (ip), vehicle: Klucel (hydroxypropylcellulose) (HPC)
[4] = dose: 50.0 mg/kg/injection, schedule: Q04DX002 (ip), vehicle: saline with Tween-80
[5] = dose: 100.0 mg/kg/injection, schedule: Q04DX002 (ip), vehicle: saline with Tween-80
[6] = dose: 200.0 mg/kg/injection, schedule: Q04DX002 (ip), vehicle: saline with Tween-80
[7] = dose: 50.0 mg/kg/injection, schedule: Q01DX009 (ip), vehicle: saline with Tween-80
[8] = dose: 100.0 mg/kg/injection, schedule: Q01DX009 (ip), vehicle: saline with Tween-80
[9] = dose: 200.0 mg/kg/injection, schedule: Q01DX009 (ip), vehicle: saline with Tween-80

Measured: T/C

O=[N+]([O-])c1ccc(/C=C(/c2ccc([N+](=O)[O-])o2)S(=O)(=O)c2ccccc2)o1
inactive: dose: 50.0 mg/kg/injection, schedule: Q01DX009 (ip), vehicle: suspension in saline 95 % of control | dose: 100.0 mg/kg/injection, schedule: Q01DX009 (ip), vehicle: suspension in saline 100 % of control

COC(=O)Nc1cn2ccc(C(Cl)=C(Cl)Cl)cc2n1
inactive: [1] 107 % of control and 109 % of control | [2] 117 % of control and 122 % of control | [3] 116 % of control

CC/C=C\C/C=C\CC1(O)C=C(Cl)C(=O)C1C(OC(C)=O)C(OC(C)=O)C(CCCC(=O)OC)OC(C)=O (stereo not given)
inactive: dose: 2.25 mg/kg/injection, schedule: Q01DX005 (ip), vehicle: Klucel (hydroxypropylcellulose) (HPC) 103 % of control | dose: 4.5 mg/kg/injection, schedule: Q01DX005 (ip), vehicle: Klucel (hydroxypropylcellulose) (HPC) 94 % of control | dose: 9.0 mg/kg/injection, schedule: Q01DX005 (ip), vehicle: Klucel (hydroxypropylcellulose) (HPC) 100 % of control | dose: 18.0 mg/kg/injection, schedule: Q01DX005 (ip), vehicle: Klucel (hydroxypropylcellulose) (HPC) 95 % of control | dose: 36.0 mg/kg/injection, schedule: Q01DX005 (ip), vehicle: Klucel (hydroxypropylcellulose) (HPC) 95 % of control

O=C(O)CC(=O)O.[NH-]C1CCCC1[NH-].[Pt+2]
active: [4] 169 % of control | [5] 185 % of control | [6] 197 % of control
inactive: dose: 6.25 mg/kg/injection, schedule: Q04DX002 (ip), vehicle: saline 114 % of control

COc1ccc(C(CN2CCOCC2)C(C)=O)cc1OC (stereo not given)
inactive: dose: 60.0 mg/kg/injection, schedule: Q01DX005 (ip), vehicle: saline 101 % of control | dose: 120.0 mg/kg/injection, schedule: Q01DX005 (ip), vehicle: saline 101 % of control | dose: 240.0 mg/kg/injection, schedule: Q01DX005 (ip), vehicle: saline 101 % of control

O=[N+]([O-])c1ccc2c(c1)sc1cc([N+](=O)[O-])c(Br)cc12
inactive: [7] 104 % of control | [8] 102 % of control | [9] 112 % of control | dose: 400.0 mg/kg/injection, schedule: Q01DX009 (ip), vehicle: saline with Tween-80 103 % of control

COc1ccc2nc3cc(Cl)ccc3c(Nc3ccc(O)c(CN(CCCl)CCCl)c3)c2c1
inactive: dose: 0.06 mg/kg/injection, schedule: Q01DX009 (ip), vehicle: saline with Tween-80 98 % of control | dose: 0.09 mg/kg/injection, schedule: Q01DX009 (ip), vehicle: saline with Tween-80 89 % of control
active: dose: 0.44 mg/kg/injection, schedule: Q01DX009 (ip), vehicle: saline 150 % of control | dose: 0.6 mg/kg/injection, schedule: Q01DX009 (ip), vehicle: saline with Tween-80 154 % of control | dose: 0.66 mg/kg/injection, schedule: Q01DX009 (ip), vehicle: saline 160 % of control | dose: 1.0 mg/kg/injection, schedule: Q01DX009 (ip), vehicle: saline 155 % of control | dose: 1.5 mg/kg/injection, schedule: Q01DX009 (ip), vehicle: saline 175 % of control

Oc1ccc2[nH]c3cc4ccncc4cc3c2c1
inactive: dose: 25.0 mg/kg/injection, schedule: Q04DX002 (ip), vehicle: saline with Tween-80 106 % of control | [4] 97 % of control | [5] 122 % of control | [6] 115 % of control

Cc1c(Br)c(Br)nn1C(C)C(=O)N(C)C (stereo not given)
inactive: [1] 110 % of control | [2] 99 % of control | [3] 101 % of control

O=c1c2ccccc2c(=O)n2n1C1C=CC2C1
inactive: dose: 50.0 mg/kg/injection, schedule: Q01DX005 (ip), vehicle: Klucel (hydroxypropylcellulose) (HPC) 107 % of control | dose: 100.0 mg/kg/injection, schedule: Q01DX005 (ip), vehicle: Klucel (hydroxypropylcellulose) (HPC) 105 % of control | dose: 200.0 mg/kg/injection, schedule: Q01DX005 (ip), vehicle: Klucel (hydroxypropylcellulose) (HPC) 100 % of control

COc1cc(C)c2nc3c(C)c(Cl)ccc3c(Cl)c2c1
inactive: dose: 3.0 mg/kg/injection, schedule: Q01DX005 (ip), vehicle: Klucel + Tween-80 98 % of control | dose: 6.0 mg/kg/injection, schedule: Q01DX005 (ip), vehicle: Klucel + Tween-80 100 % of control | dose: 12.0 mg/kg/injection, schedule: Q01DX005 (ip), vehicle: Klucel + Tween-80 97 % of control | dose: 50.0 mg/kg/injection, schedule: Q01DX005 (ip), vehicle: Klucel + Tween-80 88 % of control

C=C(C)C(=O)OC1CCC2(C)C(CCC3C2CCC2(C)C(c4ccc(=O)oc4)CC4OC432)C1 (stereo not given)
inactive: dose: 1.25 mg/kg/injection, schedule: Q01DX009 (ip), vehicle: saline with Tween-80 98 % of control | dose: 2.5 mg/kg/injection, schedule: Q01DX009 (ip), vehicle: saline with Tween-80 100 % of control | dose: 5.0 mg/kg/injection, schedule: Q01DX009 (ip), vehicle: saline with Tween-80 122 % of control | dose: 10.0 mg/kg/injection, schedule: Q01DX009 (ip), vehicle: saline with Tween-80 106 % of control | dose: 20.0 mg/kg/injection, schedule: Q01DX009 (ip), vehicle: saline with Tween-80 100 % of control

COc1cc2c(c(OC)c1OC)-c1ccc(SCc3ccccc3)c(=O)cc1[C@@H](NC(C)=O)CC2
inactive: dose: 1.56 mg/kg/injection, schedule: Q01DX009 (ip), vehicle: Klucel (hydroxypropylcellulose) (HPC) 105 % of control and 111 % of control and 122 % of control | dose: 1.56 mg/kg/injection, schedule: Q01DX009 (ip), vehicle: saline with Tween-80 96 % of control | dose: 3.12 mg/kg/injection, schedule: Q01DX009 (ip), vehicle: Klucel (hydroxypropylcellulose) (HPC) 105 % of control and 123 % of control | dose: 3.12 mg/kg/injection, schedule: Q01DX009 (ip), vehicle: saline with Tween-80 105 % of control | dose: 6.25 mg/kg/injection, schedule: Q01DX009 (ip), vehicle: saline with Tween-80 105 % of control | dose: 25.0 mg/kg/injection, schedule: Q01DX009 (ip), vehicle: Klucel (hydroxypropylcellulose) (HPC) 92 % of control
active: dose: 12.5 mg/kg/injection, schedule: Q01DX009 (ip), vehicle: Klucel (hydroxypropylcellulose) (HPC) 169 % of control and 214 % of control

CC(O)Cn1nnc2ccccc2c1=O (stereo not given)
inactive: dose: 50.0 mg/kg/injection, schedule: Q01DX005 (ip), vehicle: saline with Tween-80 107 % of control | dose: 100.0 mg/kg/injection, schedule: Q01DX005 (ip), vehicle: saline with Tween-80 105 % of control | dose: 200.0 mg/kg/injection, schedule: Q01DX005 (ip), vehicle: saline with Tween-80 112 % of control

O=c1[nH]c2nc3ccccc3n2c(=O)c2ccccc12
inactive: dose: 100.0 mg/kg/injection, schedule: Q01DX001 (ip), vehicle: Klucel (hydroxypropylcellulose) (HPC) 98 % of control | dose: 200.0 mg/kg/injection, schedule: Q01DX001 (ip), vehicle: Klucel (hydroxypropylcellulose) (HPC) 98 % of control | dose: 400.0 mg/kg/injection, schedule: Q01DX001 (ip), vehicle: Klucel (hydroxypropylcellulose) (HPC) 95 % of control

CC(=O)Nc1cc(Cl)c2ncn(C3OC(CO)C(O)C3O)c2n1 (stereo not given)
inactive: dose: 25.0 mg/kg/injection, schedule: Q04DX003 (ip), vehicle: water 111 % of control | dose: 50.0 mg/kg/injection, schedule: Q04DX003 (ip), vehicle: water 112 % of control | dose: 100.0 mg/kg/injection, schedule: Q04DX003 (ip), vehicle: water 109 % of control | dose: 200.0 mg/kg/injection, schedule: Q04DX003 (ip), vehicle: water 100 % of control | dose: 400.0 mg/kg/injection, schedule: Q04DX003 (ip), vehicle: water 100 % of control

COC1(OC)C2C=CC1CC2
inactive: [7] 107 % of control and 116 % of control | [8] 101 % of control | [9] 109 % of control

COc1c2ccccc2c(OC)c2c(OC(C)=O)c3c(c(OC(C)=O)c12)CC=CC3
inactive: dose: 3.13 mg/kg/injection, schedule: Q01DX009 (ip), vehicle: other 96 % of control | dose: 6.25 mg/kg/injection, schedule: Q01DX009 (ip), vehicle: other 104 % of control | dose: 25.0 mg/kg/injection, schedule: Q01DX009 (ip), vehicle: other 93 % of control | dose: 50.0 mg/kg/injection, schedule: Q01DX009 (ip), vehicle: other 96 % of control

CNC(=O)OCc1c(-c2ccccc2)nc2n1CCS2
inactive: dose: 12.5 mg/kg/injection, schedule: Q01DX001 (ip), vehicle: Klucel (hydroxypropylcellulose) (HPC) 108 % of control | dose: 25.0 mg/kg/injection, schedule: Q01DX001 (ip), vehicle: Klucel (hydroxypropylcellulose) (HPC) 107 % of control | dose: 50.0 mg/kg/injection, schedule: Q01DX001 (ip), vehicle: Klucel (hydroxypropylcellulose) (HPC) 113 % of control
